Assay results: patent US20050118204A1, “Methods for controlling membrane permeability of a membrane permeable substance and screening methods for a membrane permeable substance” (priority 2003, published 2005)

Key:
dermal fibroblast [1] = assay: Enhancing effect of incorporation of Arg oligomer using substance positively changing membrane curvature (Test Example 5); assay type: cell-based; conditions: Arg oligomer 1 μM, 10 minutes
Description: The enhancing effect of incorporation of an Arg oligomer was evaluated by using skin-related cells (dermal fibroblast). Dermal fibroblast (Fibrocell, produced by Kurabo Industries, Ltd.) was seeded on a 6-well plate in an amount of 3×10^4 (cell/well) and cultivated with D-MEM Culture Medium (Dulbecco's modified Eagle medium, containing 10% serum, penicillin: 50 U/mL, streptomycin: 50 μg/mL) for 2 days. After cultivating for 2 days, the culture medium was removed from the wells of the 6-well plate, and D-MEM Culture Medium adjusted to contain 1,3-butanediol in a concentration of 2.5, 5 or 10 mM was added. After incubating for 5 minutes (37° C., 5% CO2), an Arg oligomer was added to the respective plates to a concentration of 1 μM and incubated for 10 minutes. After 10 minutes, the culture medium was removed by suction, and the wells were rinsed twice with an isotonic phosphate buffer solution. 500 μL of 1% Triton X-100 was added to the respective wells, followed by shaking at room temperature under light shielding for 1 hour, to lyse the cells. After thoroughly stirring by pipetting, the contents of the respective cells were transferred by 200 μL to a 96-well black cell, and fluorescence of 535 nm was measured under excitation with a spectrophotofluorometer (microplate reader, Wallac 1420 ARVOsx) at 485 nm.

[2] = Phase change of cubic phase of lecithin/sodium cholate system on adding sucrose; assay type: physicochemical; conditions: cubic phase of 22.5% water, 50.4% phosphatidylcholine, 27.1% sodium cholate by weight at 25° C
Excerpt: The suppressing effect of incorporation of an Arg oligomer was investigated upon adding sucrose as a permeation suppressing substance, which was disclosed as a substance negatively changing the membrane curvature in Biochimica et Biophysica Acta (BBA)—Biomembranes, vol. 1285, Issue 1, p. 109-122 (1996). The inventors confirmed that a cubic phase of lecithin/sodium cholate system was constituted by utilizing lecithin (phosphatidylcholine) as a major constitutional component of the phospholipid constituting a cell membrane, and the cubic phase was changed to a hexagonal phase by adding sucrose thereto (as described in Biochim. Biophys. Acta., vol. 125, p. 563-580 (1966)). The phase change was determined by a change of the shape observed by a polarization microscope, the presence or absence of polarization with a polarizing film (a lamellar phase and a hexagonal phase were viewed brightly owing to the polarization thereof, but a cubic phase is viewed darkly), or a difference in spectrum patterns obtained by small angle X-ray scattering. The cubic phase was formed by mixing 22.5% by weight of water, 50.4% by weight of phosphatidylcholine and 27.1% by weight of sodium cholate at 25° C. When sucrose was added to the cubic phase in a proportion of 3.5% by weight or more, the cubic phase was changed to a lamellar phase. […]

dermal fibroblast [3] = assay: Suppressing effect of incorporation of Arg oligomer using substance negatively changing membrane curvature (Test Example 6); assay type: cell-based; conditions: Arg oligomer 1 μM, 10 minutes
Description: The suppressing effect of incorporation of an Arg oligomer was evaluated by using skin-related cells (dermal fibroblast). Dermal fibroblast (Fibrocell, produced by Kurabo Industries, Ltd.) was seeded on a 6-well plate in an amount of 3×10^4 (cell/well) and cultivated with D-MEM Culture Medium (Dulbecco's modified Eagle medium, containing 10% serum, penicillin: 50 U/mL, streptomycin: 50 μg/mL) for 2 days. After cultivating for 2 days, the culture medium was removed from the wells of the 6-well plate, and D-MEM Culture Medium adjusted to contain sucrose in a concentration of 2.5, 5 or 10 mM was added. After incubating for 5 minutes (37° C., 5% CO2), an Arg oligomer was added to the respective plates to a concentration of 1 μM and incubated for 10 minutes. After lapsing 10 minutes, the culture medium was removed by suction, and the contents of the wells were rinsed twice with an isotonic phosphate buffer solution. 500 μL of 1% Triton X-100 was added to the respective wells, followed by shaking at room temperature under light shielding for 1 hour, to lyse the cells. After thoroughly stirring by pipetting, the contents of the respective wells were transferred by 200 μL to a 96-well black cell, and fluorescence of 535 nm was measured under excitation with a spectrophotofluorometer (microplate reader, Wallac 1420 ARVOsx) at 485 nm. The addition of sucrose decreased the fluorescence intensity depending upon the concentration of sucrose by 8% with a sucrose concentration of 2.5 mM, 19% with 5 mM and 37% with 10 mM, in comparison to the case where no sucrose was added. According to the aforementioned experimentation, sucrose is a compound changing the membrane curvature to concave, and it is considered that the change of the membrane suppresses the membrane permeability of the Arg oligomer.

erythrocytes = assay: Influence of osmotic pressure on membrane permeation of Tat Peptide (48-60) into erythrocyte (Test Example 4); assay type: cell-based, sheep; conditions: 10 μM, 37° C, 10 minutes; hypotonic versus isotonic phosphate buffer solution
Description: 5 mL of preserved sheep blood (available from Japan Biomaterial Center Co., Ltd.) was placed in a tube, and after subjecting to centrifugal separation (4° C., 3,000 g, 3 min), the supernatant fluid was removed. 5 mL of physiological saline was added thereto, followed by lightly stirring, and then subjected to centrifugal separation (4° C., 3,000 g, 3 min). The same operation was repeated to obtain an erythrocyte pellet. 400 μL of an isotonic phosphate buffer solution was added to 400 μL of the erythrocyte pellet, and after stirring, the mixture was subjected to centrifugal separation (4° C., 3,000 g, 3 min), followed by removing the supernatant fluid. The same operation was repeated to obtain an erythrocyte pellet for evaluation. […] The solution in the Coulter Counter® is replaced by a hypotonic phosphate buffer solution (70% hypotonicity), and the diameter of the erythrocytes floating in the hypotonic phosphate buffer solution was measured in the same manner as in the case of the isotonic phosphate buffer solution. The diameter of the erythrocytes in a hypertonic phosphate buffer solution (130% hypertonicity) was also measured in the same manner. […]
An erythrocyte pellet for evaluation was prepared in the same manner as in Test Example 1. […] The supernatant fluid was measured for fluorescence intensity with a microplate reader or a spectrophotofluorometer. […]

CC(O)CCO (centres unmarked) [1,3-butanediol]
increase of fluorescence intensity (Arg oligomer incorporation) versus no addition (dermal fibroblast [1]; 2.5 mM of added substance): about 15%

N#C[S-].[Na+] [sodium thiocyanate]
increase of fluorescence intensity (Arg oligomer incorporation) versus no addition (dermal fibroblast [1]; 2.5 mM of added substance): about 10%
increase of fluorescence intensity (Arg oligomer incorporation) versus no addition (dermal fibroblast [1]; 10 mM of added substance): about 15%

OC[C@H]1O[C@@](CO)(O[C@H]2O[C@H](CO)[C@@H](O)[C@H](O)[C@H]2O)[C@@H](O)[C@@H]1O [sucrose]
proportion added at which the cubic phase was changed to a lamellar phase [2]: ≥ 3.5 % by weight
decrease of fluorescence intensity (Arg oligomer incorporation) versus no sucrose (dermal fibroblast [3]; sucrose 2.5 mM): 8%
decrease of fluorescence intensity (Arg oligomer incorporation) versus no sucrose (dermal fibroblast [3]; sucrose 5 mM): 19%
decrease of fluorescence intensity (Arg oligomer incorporation) versus no sucrose (dermal fibroblast [3]; sucrose 10 mM): 37%

rhodamine-GABA-GRKKRRQRRRPPQC-NH2.8CF3COOH [Tat Peptide]
amount of the Tat Peptide which penetrated into the erythrocytes on lowering the osmotic pressure, by fluorescence intensity (erythrocytes): increased
